In ChEMBL document CHEMBL1129918, “Peptide argininol inverse substrates of anisic acid: Novel inhibitors of the trypsin-like serine proteinases” (Bioorg Med Chem Lett, 1997):
Active and inactive are the calls of the source. The rule behind the calls is not given here.

What was measured:
[1] = target: Serine protease 1 (Homo sapiens) (UniProt P07477); assay: The inhibitor specificity constant ki/Ki was evaluated for the compound against trypsin
[2] = target: Prothrombin (Homo sapiens, UniProt P00734); assay: Evaluated for inhibition against thrombin
[3] = target: Tryptase (Homo sapiens) (UniProt Q9BZJ3+Q15661+Q9NRR2); assay: Inhibitor specificity constant ki/Ki was evaluated for the compound against tryptase; NI means No inhibition; type: protein assay
[4] = target: Coagulation factor X (Homo sapiens) (UniProt P00742); assay: Inhibitor specificity constant ki/Ki was evaluated for the compound against Factor Xa
Sequence of Coagulation factor X (Homo sapiens) (P00742 41-179 limits assumed): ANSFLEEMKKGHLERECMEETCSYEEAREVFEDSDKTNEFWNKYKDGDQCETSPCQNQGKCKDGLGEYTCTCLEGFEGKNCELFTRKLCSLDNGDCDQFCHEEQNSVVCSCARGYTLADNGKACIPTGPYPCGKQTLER
Sequence of Coagulation factor X (Homo sapiens) (P00742 235-488 limits assumed): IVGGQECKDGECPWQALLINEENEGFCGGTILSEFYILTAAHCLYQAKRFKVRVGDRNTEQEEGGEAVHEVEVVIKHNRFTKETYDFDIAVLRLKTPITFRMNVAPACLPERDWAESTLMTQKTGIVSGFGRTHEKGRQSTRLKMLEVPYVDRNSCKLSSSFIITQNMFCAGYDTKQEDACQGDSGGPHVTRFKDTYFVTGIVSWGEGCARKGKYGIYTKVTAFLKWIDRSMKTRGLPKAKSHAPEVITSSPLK

Sequence of Serine protease 1 (Homo sapiens) (P07477 whole entry): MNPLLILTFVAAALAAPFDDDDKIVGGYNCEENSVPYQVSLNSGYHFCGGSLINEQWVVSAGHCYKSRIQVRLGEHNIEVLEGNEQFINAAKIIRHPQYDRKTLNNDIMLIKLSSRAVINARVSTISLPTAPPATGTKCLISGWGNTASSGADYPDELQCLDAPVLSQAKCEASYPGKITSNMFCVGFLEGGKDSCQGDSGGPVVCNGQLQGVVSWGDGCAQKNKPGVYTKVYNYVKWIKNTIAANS

`COc1ccc(C(=O)OC[C@H](CCCN=C(N)N)NC(=O)[C@@H]2CCCN2C(=O)[C@@H](Cc2ccccc2)NC(=O)OC(C)(C)C)cc1` gave a ki/Ki [1] of 0.0417 M⁻¹ s⁻¹ and a Ki [2] of 14 µM.
`COc1ccc(C(=O)OC[C@H](CCCN=C(N)N)NC(=O)[C@H](CCC(N)=O)NC(=O)[C@H](CCCN=C(N)N)NC(C)=O)cc1` was tested, and the ki/Ki [3] was “inactive”.
With `CC[C@H](C)[C@H](NC(=O)OC(C)(C)C)C(=O)N[C@@H](CCC(=O)O)C(=O)NCC(=O)N[C@@H](CCCN=C(N)N)COC(=O)c1ccc(OC)cc1` the ki/Ki [4] was 0.075 M⁻¹ s⁻¹.
